Source: paper PMC4823954, “From fighting depression to conquering tumors: a novel tricyclic thiazepine compound as a tubulin polymerization inhibitor” (Cell Death & Disease, 2016)

Tests used:
Assay in all cases: KINOMEscan
Assay type in all cases: binding
Conditions in all cases: read-out: % Ctrl
[1] = biological target: T1, PKMYT1 (Homo sapiens, UniProt Q99640)
T1 construct: purchased DiscoveRx KINOMEscan
Summary of the method: (§1)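 Competition binding panel of 442 non-mutant kinases: test compound at 5 and 10 μM competed with an active-site-directed ligand for 1 h with shaking. Bound kinase was eluted with 0.5 μM ligand and quantified by qPCR; %Ctrl = (compound − positive control)/(DMSO − positive control) × 100, lower meaning tighter binding.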

[2] = biological target: T2, PHKG1 (Homo sapiens, UniProt Q16816)
T2 construct: purchased DiscoveRx KINOMEscan
Summary of the method: as §1

[3] = biological target: T3, BIKE (Homo sapiens, UniProt Q9NSY1)
T3 construct: purchased DiscoveRx KINOMEscan
Summary of the method: as §1

[4] = biological target: T4, GSK3A (Homo sapiens, UniProt P49840)
T4 construct: purchased DiscoveRx KINOMEscan
Summary of the method: as §1

[5] = biological target: T5, AURKA (Homo sapiens, UniProt O14965)
T5 construct: purchased DiscoveRx KINOMEscan
Summary of the method: as §1

[6] = biological target: T6, PIK3CA(E542K) (Homo sapiens, UniProt P42336, E542K)
T6 construct: purchased DiscoveRx KINOMEscan

[7] = biological target: T7, LTK (Homo sapiens, UniProt P29376)
T7 construct: purchased DiscoveRx KINOMEscan
Summary of the method: as §1

[8] = biological target: T8, BRAF(V600E) (Homo sapiens, UniProt P15056, V600E)
T8 construct: purchased DiscoveRx KINOMEscan

[9] = biological target: T9, CSNK1A1L (Homo sapiens, UniProt Q8N752)
T9 construct: purchased DiscoveRx KINOMEscan
Summary of the method: as §1

[10] = biological target: T10, MYLK2 (Homo sapiens, UniProt Q9H1R3)
T10 construct: purchased DiscoveRx KINOMEscan
Summary of the method: as §1

[11] = biological target: T11, MEK2 (Homo sapiens, UniProt P36507)
T11 construct: purchased DiscoveRx KINOMEscan
Summary of the method: as §1

[12] = biological target: T12, DYRK1B (Homo sapiens, UniProt Q9Y463)
T12 construct: purchased DiscoveRx KINOMEscan
Summary of the method: as §1

[13] = biological target: T13, YSK4 (Homo sapiens, UniProt Q56UN5)
T13 construct: purchased DiscoveRx KINOMEscan
Summary of the method: as §1

[14] = biological target: T14, MYO3B (Homo sapiens, UniProt Q8WXR4)
T14 construct: purchased DiscoveRx KINOMEscan
Summary of the method: as §1

[15] = biological target: T15, IRAK4 (Homo sapiens, UniProt Q9NWZ3)
T15 construct: purchased DiscoveRx KINOMEscan
Summary of the method: as §1

[16] = biological target: T16, YSK1 (Homo sapiens, UniProt O00506)
T16 construct: purchased DiscoveRx KINOMEscan
Summary of the method: as §1

[17] = biological target: T17, TESK1 (Homo sapiens, UniProt Q15569)
T17 construct: purchased DiscoveRx KINOMEscan
Summary of the method: as §1

[18] = biological target: T18, CSF1R (Homo sapiens, UniProt P07333)
T18 construct: purchased DiscoveRx KINOMEscan
Summary of the method: as §1

[19] = biological target: T19, PIM1 (Homo sapiens, UniProt P11309)
T19 construct: purchased DiscoveRx KINOMEscan
Summary of the method: as §1

[20] = biological target: T20, EIF2AK1 (Homo sapiens, UniProt Q9BQI3)
T20 construct: purchased DiscoveRx KINOMEscan
Summary of the method: as §1

[21] = biological target: T21, LRRK2 (Homo sapiens, UniProt Q5S007)
T21 construct: purchased DiscoveRx KINOMEscan
Summary of the method: as §1

[22] = biological target: T22, DDR2 (Homo sapiens, UniProt Q16832)
T22 construct: purchased DiscoveRx KINOMEscan
Summary of the method: as §1

[23] = biological target: T23, MAP3K2 (Homo sapiens, UniProt Q9Y2U5)
T23 construct: purchased DiscoveRx KINOMEscan
Summary of the method: as §1

[24] = biological target: T24, CSNK1G2 (Homo sapiens, UniProt P78368)
T24 construct: purchased DiscoveRx KINOMEscan
Summary of the method: as §1

[25] = biological target: T25, KIT(D816V) (Homo sapiens, UniProt P10721, D816V)
T25 construct: purchased DiscoveRx KINOMEscan

[26] = biological target: T26, MST3 (Homo sapiens, UniProt Q9Y6E0)
T26 construct: purchased DiscoveRx KINOMEscan
Summary of the method: as §1

[27] = biological target: T27, CSNK1D (Homo sapiens, UniProt P48730)
T27 construct: purchased DiscoveRx KINOMEscan
Summary of the method: as §1

[28] = biological target: T28, LZK (Homo sapiens, UniProt O43283)
T28 construct: purchased DiscoveRx KINOMEscan
Summary of the method: as §1

[29] = biological target: T29, PIK3CA(I800L) (Homo sapiens, UniProt P42336, I800L)
T29 construct: purchased DiscoveRx KINOMEscan

[30] = biological target: T30, QSK (Homo sapiens, UniProt Q9Y2K2)
T30 construct: purchased DiscoveRx KINOMEscan
Summary of the method: as §1

T25 sequence (P10721 26-976 D816V): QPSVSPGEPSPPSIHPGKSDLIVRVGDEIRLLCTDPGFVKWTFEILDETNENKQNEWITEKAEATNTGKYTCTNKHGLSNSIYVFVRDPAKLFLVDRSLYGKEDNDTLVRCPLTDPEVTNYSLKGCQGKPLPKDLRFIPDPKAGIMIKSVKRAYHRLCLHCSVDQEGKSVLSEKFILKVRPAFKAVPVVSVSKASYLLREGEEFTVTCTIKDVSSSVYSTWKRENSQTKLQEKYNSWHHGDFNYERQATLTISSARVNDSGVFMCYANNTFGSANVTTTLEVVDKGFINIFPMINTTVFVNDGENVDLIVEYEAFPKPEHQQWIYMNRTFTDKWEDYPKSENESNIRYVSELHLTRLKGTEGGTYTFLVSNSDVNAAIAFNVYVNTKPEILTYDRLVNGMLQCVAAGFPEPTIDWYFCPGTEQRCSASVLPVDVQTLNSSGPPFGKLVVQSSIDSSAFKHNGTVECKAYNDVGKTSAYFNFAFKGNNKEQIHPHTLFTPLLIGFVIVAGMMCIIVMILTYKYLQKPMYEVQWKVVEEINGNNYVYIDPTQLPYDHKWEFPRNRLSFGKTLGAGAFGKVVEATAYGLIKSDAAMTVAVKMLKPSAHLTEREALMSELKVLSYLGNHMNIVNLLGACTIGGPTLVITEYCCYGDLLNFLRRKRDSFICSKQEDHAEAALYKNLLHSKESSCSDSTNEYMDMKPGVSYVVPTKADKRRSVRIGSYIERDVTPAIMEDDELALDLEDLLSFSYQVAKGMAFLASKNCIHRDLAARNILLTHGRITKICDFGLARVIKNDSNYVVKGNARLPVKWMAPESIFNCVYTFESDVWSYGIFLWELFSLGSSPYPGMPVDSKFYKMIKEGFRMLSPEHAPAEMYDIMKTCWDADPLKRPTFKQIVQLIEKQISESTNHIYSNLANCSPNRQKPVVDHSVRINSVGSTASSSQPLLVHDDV
T27 sequence (P48730 whole entry): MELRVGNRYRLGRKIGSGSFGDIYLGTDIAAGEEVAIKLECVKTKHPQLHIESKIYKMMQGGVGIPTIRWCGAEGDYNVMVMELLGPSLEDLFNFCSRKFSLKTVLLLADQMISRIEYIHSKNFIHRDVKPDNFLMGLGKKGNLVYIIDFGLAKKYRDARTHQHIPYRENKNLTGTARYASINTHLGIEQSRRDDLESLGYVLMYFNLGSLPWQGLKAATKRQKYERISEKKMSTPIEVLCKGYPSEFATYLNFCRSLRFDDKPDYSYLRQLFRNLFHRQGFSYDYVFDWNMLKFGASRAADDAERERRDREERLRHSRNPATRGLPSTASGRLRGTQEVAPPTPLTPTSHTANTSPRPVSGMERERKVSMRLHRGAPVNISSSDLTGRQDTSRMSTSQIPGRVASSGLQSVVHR
T29 sequence (P42336 whole entry I800L): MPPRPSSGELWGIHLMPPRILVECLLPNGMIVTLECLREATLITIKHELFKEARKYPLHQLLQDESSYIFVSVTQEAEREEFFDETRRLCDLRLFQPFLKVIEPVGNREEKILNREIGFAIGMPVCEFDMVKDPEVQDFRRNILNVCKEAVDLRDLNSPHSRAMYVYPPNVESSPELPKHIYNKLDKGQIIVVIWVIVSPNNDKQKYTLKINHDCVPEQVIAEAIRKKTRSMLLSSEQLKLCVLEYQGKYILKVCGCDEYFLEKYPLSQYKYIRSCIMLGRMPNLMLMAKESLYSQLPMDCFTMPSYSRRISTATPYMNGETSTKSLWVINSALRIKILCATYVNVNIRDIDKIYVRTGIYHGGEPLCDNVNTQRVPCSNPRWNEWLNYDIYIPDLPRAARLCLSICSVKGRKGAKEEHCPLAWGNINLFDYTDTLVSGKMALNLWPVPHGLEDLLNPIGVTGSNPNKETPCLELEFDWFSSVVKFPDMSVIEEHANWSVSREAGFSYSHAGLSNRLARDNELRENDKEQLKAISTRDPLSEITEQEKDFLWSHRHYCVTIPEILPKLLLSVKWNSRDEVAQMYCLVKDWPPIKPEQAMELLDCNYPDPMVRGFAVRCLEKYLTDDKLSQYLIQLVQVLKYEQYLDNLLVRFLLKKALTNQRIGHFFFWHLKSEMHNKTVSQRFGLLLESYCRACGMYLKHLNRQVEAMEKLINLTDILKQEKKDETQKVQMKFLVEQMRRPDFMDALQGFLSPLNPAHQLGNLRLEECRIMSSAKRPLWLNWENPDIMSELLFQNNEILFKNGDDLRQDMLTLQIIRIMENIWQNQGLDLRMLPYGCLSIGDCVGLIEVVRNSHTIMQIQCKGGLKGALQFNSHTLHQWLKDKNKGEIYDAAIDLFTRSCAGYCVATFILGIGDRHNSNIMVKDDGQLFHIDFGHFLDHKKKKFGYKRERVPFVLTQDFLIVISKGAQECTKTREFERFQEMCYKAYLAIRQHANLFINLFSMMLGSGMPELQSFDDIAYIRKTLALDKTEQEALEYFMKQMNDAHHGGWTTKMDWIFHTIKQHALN
T10 sequence (Q9H1R3 whole entry): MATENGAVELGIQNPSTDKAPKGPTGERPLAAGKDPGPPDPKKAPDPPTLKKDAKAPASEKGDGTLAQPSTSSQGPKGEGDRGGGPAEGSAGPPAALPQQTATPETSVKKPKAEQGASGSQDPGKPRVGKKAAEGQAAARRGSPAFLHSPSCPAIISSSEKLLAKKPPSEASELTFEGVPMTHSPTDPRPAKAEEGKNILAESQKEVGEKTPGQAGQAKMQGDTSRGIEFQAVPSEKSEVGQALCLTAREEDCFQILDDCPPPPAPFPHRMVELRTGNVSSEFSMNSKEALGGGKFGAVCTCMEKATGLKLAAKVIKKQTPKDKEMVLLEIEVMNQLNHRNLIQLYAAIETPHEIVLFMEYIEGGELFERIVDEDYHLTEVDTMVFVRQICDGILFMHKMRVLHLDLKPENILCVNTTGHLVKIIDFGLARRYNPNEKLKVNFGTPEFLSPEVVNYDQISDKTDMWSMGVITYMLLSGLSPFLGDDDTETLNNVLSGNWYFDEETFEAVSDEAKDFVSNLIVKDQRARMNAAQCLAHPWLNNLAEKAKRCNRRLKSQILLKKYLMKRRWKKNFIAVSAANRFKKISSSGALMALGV
T9 sequence (Q8N752 whole entry): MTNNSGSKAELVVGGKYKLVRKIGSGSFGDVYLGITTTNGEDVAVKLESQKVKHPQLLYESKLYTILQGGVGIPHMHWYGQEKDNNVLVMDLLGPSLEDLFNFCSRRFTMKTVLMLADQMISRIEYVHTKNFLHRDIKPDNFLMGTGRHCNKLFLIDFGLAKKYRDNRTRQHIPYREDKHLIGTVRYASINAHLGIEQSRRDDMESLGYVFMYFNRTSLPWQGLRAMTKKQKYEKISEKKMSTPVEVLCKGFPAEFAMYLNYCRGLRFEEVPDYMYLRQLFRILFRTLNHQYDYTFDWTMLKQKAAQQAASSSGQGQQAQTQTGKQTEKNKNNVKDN
T4 sequence (P49840 whole entry): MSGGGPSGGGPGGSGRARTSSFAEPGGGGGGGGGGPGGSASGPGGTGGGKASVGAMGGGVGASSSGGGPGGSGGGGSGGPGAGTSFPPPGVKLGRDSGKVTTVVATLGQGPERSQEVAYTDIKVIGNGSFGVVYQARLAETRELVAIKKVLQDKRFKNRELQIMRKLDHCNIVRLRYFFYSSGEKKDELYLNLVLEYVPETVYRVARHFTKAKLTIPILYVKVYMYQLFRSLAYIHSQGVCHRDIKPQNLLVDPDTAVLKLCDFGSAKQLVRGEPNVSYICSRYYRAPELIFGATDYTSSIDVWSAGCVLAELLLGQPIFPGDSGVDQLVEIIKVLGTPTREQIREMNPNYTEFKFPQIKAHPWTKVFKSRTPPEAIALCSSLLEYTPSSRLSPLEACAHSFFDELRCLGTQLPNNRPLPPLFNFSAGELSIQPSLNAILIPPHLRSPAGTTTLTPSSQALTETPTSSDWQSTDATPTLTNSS
T20 sequence (Q9BQI3 whole entry): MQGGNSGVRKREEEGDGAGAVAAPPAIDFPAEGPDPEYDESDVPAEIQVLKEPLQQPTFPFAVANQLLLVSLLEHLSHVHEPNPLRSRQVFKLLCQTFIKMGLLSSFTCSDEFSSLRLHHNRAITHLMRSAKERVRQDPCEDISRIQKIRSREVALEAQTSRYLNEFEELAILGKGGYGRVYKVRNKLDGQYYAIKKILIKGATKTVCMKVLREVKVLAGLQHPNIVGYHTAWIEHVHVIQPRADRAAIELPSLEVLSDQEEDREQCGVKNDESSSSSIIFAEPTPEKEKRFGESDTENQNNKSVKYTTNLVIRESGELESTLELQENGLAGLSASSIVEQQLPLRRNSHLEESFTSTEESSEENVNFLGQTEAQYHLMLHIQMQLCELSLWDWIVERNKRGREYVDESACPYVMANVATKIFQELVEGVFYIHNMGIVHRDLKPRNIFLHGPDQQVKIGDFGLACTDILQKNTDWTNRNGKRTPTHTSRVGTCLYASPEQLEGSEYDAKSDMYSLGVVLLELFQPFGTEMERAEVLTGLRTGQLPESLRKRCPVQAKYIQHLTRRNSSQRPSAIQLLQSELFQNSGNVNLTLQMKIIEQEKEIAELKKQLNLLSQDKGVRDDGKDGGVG
T24 sequence (P78368 whole entry): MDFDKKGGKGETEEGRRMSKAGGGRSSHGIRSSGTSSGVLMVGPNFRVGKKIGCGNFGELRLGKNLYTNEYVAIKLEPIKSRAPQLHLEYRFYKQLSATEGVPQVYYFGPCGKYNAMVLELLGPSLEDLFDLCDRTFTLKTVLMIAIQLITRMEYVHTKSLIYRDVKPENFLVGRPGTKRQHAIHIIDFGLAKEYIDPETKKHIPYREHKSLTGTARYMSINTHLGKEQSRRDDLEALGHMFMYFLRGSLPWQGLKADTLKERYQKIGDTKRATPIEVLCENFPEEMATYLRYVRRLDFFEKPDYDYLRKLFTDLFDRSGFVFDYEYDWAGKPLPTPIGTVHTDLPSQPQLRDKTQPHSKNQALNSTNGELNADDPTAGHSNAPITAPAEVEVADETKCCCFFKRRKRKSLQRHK
T6 sequence (P42336 whole entry E542K): as the sequence (P42336 whole entry I800L) above, with E542K, L800I counted along it

Cc1ccc(C2=Nc3cccnc3S(=O)(=O)c3ccccc32)cc1 [TBPT, 6-(p-tolyl)benzo[f] pyrido[2,3-b][1,4] thiazepine 11,11-dioxide]
96%: remaining binding at 10 µM ([26]; 10 μM)
87%: remaining binding at 5 µM ([3]; 5 μM) | remaining binding at 5 µM ([17]; 5 μM)
95%: remaining binding at 10 µM ([17]; 10 μM) | remaining binding at 5 µM ([26]; 5 μM)
88%: remaining binding at 10 µM ([15]; 10 μM)
76%: remaining binding at 5 µM ([30]; 5 μM)
100%: remaining binding at 5 µM ([2]; 5 μM) | remaining binding at 5 µM ([4]; 5 μM) | remaining binding at 10 µM ([4]; 10 μM) | remaining binding at 5 µM ([5]; 5 μM) | remaining binding at 10 µM ([5]; 10 μM) | remaining binding at 5 µM ([7]; 5 μM) | remaining binding at 10 µM ([7]; 10 μM) | remaining binding at 5 µM ([9]; 5 μM) | remaining binding at 5 µM ([10]; 5 μM) | remaining binding at 10 µM ([11]; 10 μM) | remaining binding at 10 µM ([12]; 10 μM) | remaining binding at 5 µM ([14]; 5 μM) | remaining binding at 10 µM ([14]; 10 μM) | remaining binding at 5 µM ([15]; 5 μM) | remaining binding at 10 µM ([16]; 10 μM) | remaining binding at 10 µM ([18]; 10 μM) | remaining binding at 5 µM ([20]; 5 μM) | remaining binding at 10 µM ([20]; 10 μM) | remaining binding at 10 µM ([21]; 10 μM) | remaining binding at 5 µM ([22]; 5 μM) | remaining binding at 10 µM ([23]; 10 μM) | remaining binding at 5 µM ([24]; 5 μM) | remaining binding at 10 µM ([24]; 10 μM) | remaining binding at 5 µM ([28]; 5 μM) | remaining binding at 10 µM ([30]; 10 μM)
82%: remaining binding at 10 µM ([10]; 10 μM) | remaining binding at 5 µM ([23]; 5 μM)
94%: remaining binding at 10 µM ([2]; 10 μM) | remaining binding at 5 µM ([8]; 5 μM) | remaining binding at 10 µM ([8]; 10 μM) | remaining binding at 5 µM ([21]; 5 μM)
91%: remaining binding at 10 µM ([9]; 10 μM) | remaining binding at 5 µM ([19]; 5 μM)
99%: remaining binding at 10 µM ([1]; 10 μM) | remaining binding at 5 µM ([12]; 5 μM) | remaining binding at 5 µM ([16]; 5 μM) | remaining binding at 10 µM ([22]; 10 μM) | remaining binding at 10 µM ([25]; 10 μM)
72%: remaining binding at 10 µM ([29]; 10 μM)
92%: remaining binding at 5 µM ([11]; 5 μM)
86%: remaining binding at 5 µM ([1]; 5 μM)
97%: remaining binding at 10 µM ([6]; 10 μM)
98%: remaining binding at 5 µM ([13]; 5 μM) | remaining binding at 10 µM ([13]; 10 μM) | remaining binding at 5 µM ([27]; 5 μM) | remaining binding at 5 µM ([29]; 5 μM)
90%: remaining binding at 10 µM ([19]; 10 μM) | remaining binding at 10 µM ([27]; 10 μM)
62%: remaining binding at 5 µM ([25]; 5 μM)
93%: remaining binding at 10 µM ([3]; 10 μM) | remaining binding at 5 µM ([6]; 5 μM) | remaining binding at 5 µM ([18]; 5 μM) | remaining binding at 10 µM ([28]; 10 μM)
